The term Ki denotes a measure of affinity in units of concentration, obtained from inhibition or displacement.

Molecules are shown by their SMILES.

These results are taken from patent US12110283B2, “Carbonic anhydrase targeting agents and methods of using same” (VisEn Medical, Inc., priority 2011, dated 2024).

Holding throughout (type): biochemical
What all share (settings): rate of CO2 hydration, stopped flow method

For experiment [1], the target named is CA II (Homo sapiens, UniProt P00918). The experiment in a line: Ki by stopped flow CO2 hydration assay, CA II. The method, then: (§1) In this experiment, Ki values were determined by measuring the rate of CO2 hydration of the CA spectrophotometrically by a stopped flow method in the presence of varying concentrations of the CA agents.
Experiment [2] has as its target T1, CA IX (Homo sapiens, UniProt Q16790).
T1 construct: confirming upregulation and expression of CA IX in these cells; endogenous in cells; host or cells: HeLa cells, hypoxic (1% O2) or normoxic
In words: Ki by stopped flow CO2 hydration assay, CA IX. As to the method: as §1

In experiment [3] the target is CA XII (Homo sapiens, UniProt O43570). The experiment in a line: Ki by stopped flow CO2 hydration assay, CA XII. The method, then: as §1
Experiment [4] concerns the target CA XIV (Homo sapiens, UniProt Q9ULX7). In words: Ki by stopped flow CO2 hydration assay, CA XIV. As to the method: as §1

Chain of CA XII (O43570 25-354, species assumed): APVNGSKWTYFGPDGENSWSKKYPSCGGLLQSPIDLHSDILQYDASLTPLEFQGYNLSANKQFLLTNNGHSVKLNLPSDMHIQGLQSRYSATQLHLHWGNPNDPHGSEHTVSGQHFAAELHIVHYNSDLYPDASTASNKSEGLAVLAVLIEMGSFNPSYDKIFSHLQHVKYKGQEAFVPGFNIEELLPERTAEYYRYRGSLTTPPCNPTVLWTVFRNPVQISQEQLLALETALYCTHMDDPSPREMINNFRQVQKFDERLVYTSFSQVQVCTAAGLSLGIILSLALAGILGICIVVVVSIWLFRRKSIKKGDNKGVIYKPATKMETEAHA
Chain of CA XIV (Q9ULX7 16-337, species assumed): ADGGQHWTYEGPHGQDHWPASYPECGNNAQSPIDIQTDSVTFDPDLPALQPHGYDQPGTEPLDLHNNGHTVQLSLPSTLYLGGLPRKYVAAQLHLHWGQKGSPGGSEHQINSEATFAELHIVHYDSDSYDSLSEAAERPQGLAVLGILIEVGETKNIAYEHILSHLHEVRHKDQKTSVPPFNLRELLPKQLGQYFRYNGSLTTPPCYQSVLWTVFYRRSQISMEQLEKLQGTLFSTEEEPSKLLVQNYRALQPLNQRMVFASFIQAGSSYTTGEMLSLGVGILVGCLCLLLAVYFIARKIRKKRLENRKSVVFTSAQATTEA

With `CN(CCCC(=O)NCc1ccc(C(=O)Nc2nnc(S(N)(=O)=O)s2)cc1)S(=O)(=O)c1cccc2c3c(ccc12)[N+](CCCS(=O)(=O)[O-])=C(/C=C/C=C/C=C1/N(CCCS(=O)(=O)O)c2ccc4c(S(=O)(=O)O)cc(S(=O)(=O)O)cc4c2C1(C)C)C3(C)C` [Compound A1, 3-(2-((1E,3E,5E)-5-(1,1-dimethyl-6,8-disulfo-3-(3-sulfopropyl)-1H-benzo[e]indol-2(3H)-ylidene)penta-1,3-dien-1-yl)-1,1-dimethyl-6-(N-methyl-N-(4-oxo-4-((4-((5-sulfamoyl-1,3,4-thiadiazol-2-yl)carbamoyl)benzyl)amino)butyl)sulfamoyl)-1H-benzo[e]indol-3-ium-3-yl)propane-1-sulfonate], the Ki in experiment [1] came out at 288 nM; in experiment [2] it was 8.4 nM; in experiment [3], 57 nM; in experiment [4] it was 77 nM.

As for `CCN1/C(=C/C=C(/C=C/C2=[N+](CC)c3ccc4c(S(=O)(=O)[O-])cc(S(=O)(=O)O)cc4c3C2(C)C)c2ccc(C(=O)NCc3ccc(C(=O)Nc4nnc(S(N)(=O)=O)s4)cc3)cn2)C(C)(C)c2c1ccc1c(S(=O)(=O)O)cc(S(=O)(=O)O)cc21` [Compound A6, 3-ethyl-2-((1E,3Z,5E)-5-(3-ethyl-1,1-dimethyl-6,8-disulfo-1H-benzo[e]indol-2(3H)-ylidene)-3-(5-((4-((5-sulfamoyl-1,3,4-thiadiazol-2-yl)carbamoyl)benzyl)carbamoyl)pyridin-2-yl)penta-1,3-dien-1-yl)-1,1-dimethyl-8-sulfo-1H-benzo[e]indol-3-ium-6-sulfonate], the Ki in experiment [1] was found to be 27.1 nM; in experiment [2], 7.7 nM; in experiment [3] it was 40 nM; in experiment [4], 84 nM.

For `CCN1/C(=C/C=C(/C=C/C2=[N+](CC)c3ccc4c(S(=O)(=O)[O-])cc(S(=O)(=O)O)cc4c3C2(C)C)c2ccc(C(=O)NCc3ccc(S(N)(=O)=O)cc3)cn2)C(C)(C)c2c1ccc1c(S(=O)(=O)O)cc(S(=O)(=O)O)cc21` [Compound B6, 3-ethyl-2-((1E,3Z,5E)-5-(3-ethyl-1,1-dimethyl-6,8-disulfo-1H-benzo[e]indol-2(3H)-ylidene)-3-(5-((4-sulfamoylbenzyl)carbamoyl)pyridin-2-yl)penta-1,3-dien-1-yl)-1,1-dimethyl-8-sulfo-1H-benzo[e]indol-3-ium-6-sulfonate], the Ki in experiment [1] was 502 nM; in experiment [2], 9.9 nM; in experiment [3], 40 nM; in experiment [4], 69 nM.
